Results from US20160137714A1 (Thrasos Innovation, Inc., priority 2014, published 2016).
Positions of bridges follow the written chain, without caps; N, C: chain ends. Non-standard residues stand in square brackets, D forms with d. Residues, ends and D or L forms follow the SMILES beside them.

How the values were obtained:
[1] = In vitro plasma stability in heparin-treated fresh rat plasma at 37° C.; format: in vitro ADME; settings: for AUC0-240: time 0 to 240 minutes; for remaining at 1 min, 1 μM / remaining at 5 min, 1 μM / remaining at 0.25 h, 1 μM / remaining at 0.5 h, 1 μM / remaining at 1 h, 1 μM / remaining at 2 h, 1 μM: heparin-treated fresh rat plasma
Procedure: GPR-397 and GPR-405 were independently added to fresh rat plasma at a final in-vial concentration of 1 μM. The peptides were incubated in a water bath at 37° C. over a time course that included the following points (in minutes): 0, 1, 5, 15, 30, 60, 120, 240, and 1440. After the incubation time was completed, a 50 μL aliquot of plasma was removed and proteins were precipitated using a solution containing internal standard (THR-123 at 150 ng/mL) in methanol with 0.5% acetic acid (v/v). The samples were centrifuged at 13,000 RPM for 5 minutes, and a 100 μL aliquot of supernatant was removed and transferred to a 96-well plate containing 100 μL of reconstitution solution (Water/MeOH/Acetic Acid/TFA, 60/40/0.2/0.05, v/v/v/v). A calibration curve and quality control (QC) samples were prepared in parallel in the same manner as the incubation samples. The calibration range for this assay was from 0.02 to 2.0 μM in rat plasma. The extracted calibrants, QC, and incubation samples were injected onto an AB SCIEX API 2000 LC-MS/MS system. Chromatographic separation was performed using a reversed-phase C18 HPLC column (Ace-3 C18, 30×2.1 mm, 3 μm). The solvent system consisted of Milli-Q water, acetonitrile and formic acid. Analyte and internal standard were detected using the multiple reaction monitoring (MRM) scan mode. Calibration curves were generated by using a weighted (1/concentration) quadratic regression analysis of the peak area ratios (analyte/internal standard) versus the nominal concentration of the calibration standards. The concentration of the analyte in the incubation samples was determined by back-calculating the peak area ratios obtained using the quadratic regression.
FIGS. 9-12 compare the in vitro plasma stability results for GPR-405 and THR-123 incubated in fresh rat plasma treated with heparin. FIG. 9 provides a scatter plot showing the first 240 minutes of the time-course and disappearance of the THR peptides in heparin-treated fresh rat plasma at 37° C. […] FIG. 12 compares the calculated half-life of THR-123 and GPR-405.

[2] = Pharmacokinetic studies of THR-123 and GPR-294 i.v. and s.c. (FIG. 13, FIGS. 5-8); format: in vivo; settings: in vivo; s.c. versus i.v., FIG. 13; read-out: bioavailable by sub-cutaneous administration
Procedure: A stock solution of THR-123 was prepared at 250 μg/mL in DMSO. This solution was quantitatively added to blank mouse plasma to generate a calibration curve. The linear range was from 0.25 to 250 ng/mL. A 175 μL aliquot of plasma from removed from each calibrant tube and processed using solid phase extraction (SPE). Study samples were first diluted with blank control mouse plasma, and 175 μL was aliquoted for processing using SPE. An internal standard working solution (ISWS) was added to each calibrant and study sample (GPR-227 at 100 ng/mL in water). Plasma proteins were precipitated with 175 μL of methanol with 0.5% acetic acid (v/v). After centrifugation at 14,800 RPM for 10 minutes, a 300 μL aliquot of supernatant was diluted in water with 4% phosphoric acid (v/v). The entire diluted sample was extracted by SPE using a Waters Oasis HLB 96-well μElution plate. Samples were washed twice using a solution of acidified water (0.1% TFA, v/v) and 15% MeOH in water (v/v). Purified extracts were eluted into a 96-well collection plate using 40 μL of elution solvent. Standards and study samples were injected onto a Thermo Q-exactive LC-MS/MS system. Chromatographic separation was performed using a reversed-phase C18 HPLC column (Waters CSH C18, 50×2.1 mm, 2.5 μm). Analyte and internal standard were detected using the targeted selected ion monitoring (tSIM) scan mode. Calibration curves were generated by using a weighted (1/concentration^2) linear regression of the peak area ratios (analyte/internal standard) versus the nominal concentration of the calibration standards. The concentration of the analyte in the study samples was determined by back-calculating the peak area ratios obtained using the linear regression and applying the appropriate dilution factors.
The study described herein involved single (mouse) or multiple (rat) blood collections after test article administration. Test articles are given by oral (PO), intravenous (IV), subcutaneous (SC) or intraperitoneal (IP) routes. All animals have a five day acclimatization period before dosing. Body weights are recorded prior to dosing. […]

[3] = fresh rat plasma 37° C., 1 μM peptide, 0 min
[4] = fresh rat plasma 37° C., 1 μM peptide, 1 min
[5] = fresh rat plasma 37° C., 1 μM peptide, 5 min
[6] = fresh rat plasma 37° C., 1 μM peptide, 15 min
[7] = fresh rat plasma 37° C., 1 μM peptide, 30 min
[8] = fresh rat plasma 37° C., 1 μM peptide, 60 min
[9] = fresh rat plasma 37° C., 1 μM peptide, 120 min
[10] = fresh rat plasma 37° C., 1 μM peptide, 240 min
[11] = fresh rat plasma 37° C., 1 μM peptide, 240 min (4 hours), read-out: TI remaining
[12] = fresh rat plasma 37° C., 1 μM peptide, 1440 min
[13] = fresh rat plasma 37° C., 1 μM peptide
[14] = fresh rat plasma treated with heparin in vitro at 37° C.
[15] = fresh rat plasma 37° C., 1 μM peptide, 1 min, read-out: TI remaining
[16] = fresh rat plasma 37° C., 1 μM peptide, 5 min, read-out: TI remaining
[17] = fresh rat plasma 37° C., 1 μM peptide, 15 min, read-out: TI remaining
[18] = fresh rat plasma 37° C., 1 μM peptide, 30 min, read-out: TI remaining
[19] = fresh rat plasma 37° C., 1 μM peptide, 60 min, read-out: TI remaining
[20] = fresh rat plasma 37° C., 1 μM peptide, 120 min, read-out: TI remaining

SMILES: CC(C)C[C@@H]1NC(=O)[C@H](C(C)C)NC(=O)[C@H](CCC(N)=O)NC(=O)[C@H](CO)NC(=O)[C@H](CO)NC(=O)[C@H](CC(N)=O)NC(=O)[C@H](Cc2ccccc2)NC(=O)[C@H](Cc2ccc(O)cc2)NC(=O)[C@H](Cc2ccc(O)cc2)NC(=O)[C@@H](N)CSSC[C@@H](C(=O)N[C@@H](CCCCN)C(=O)N[C@@H](CCCNC(=N)N)C(=O)N[C@H](Cc2ccc(O)cc2)C(=O)N[C@@H](CCCNC(=N)N)C(=O)N[C@@H](CO)C(=O)O)NC1=O [GPR-405, Cys-Tyr-Tyr-Phe-Asn-Ser-Ser-Gln-Val-Leu-Cys-Lys-Arg-(D)Tyr-Arg-Ser] (H-CYYFNSSQVLCKR[dY]RS-OH; disulfide 1-11)
- Mean plasma concentration [1, 3]: 1.095 µM
- Sample 1 plasma concentration [1, 3]: 1.100 µM
- Sample 2 plasma concentration [1, 3]: 1.090 µM
- TI remaining [1, 3]: 100%
- Mean plasma concentration [1, 4]: 1.065 µM
- Sample 1 plasma concentration [1, 4]: 1.080 µM
- Sample 2 plasma concentration [1, 4]: 1.050 µM
- Mean plasma concentration [1, 5]: 1.105 µM
- Sample 1 plasma concentration [1, 5]: 1.090 µM
- Sample 2 plasma concentration [1, 5]: 1.120 µM
- Mean plasma concentration [1, 6]: 1.065 µM
- Sample 1 plasma concentration [1, 6]: 1.080 µM
- Sample 2 plasma concentration [1, 6]: 1.050 µM
- TI remaining [1, 6]: 97.3%
- Mean plasma concentration [1, 7]: 1.002 µM
- Sample 1 plasma concentration [1, 7]: 0.963 µM
- Sample 2 plasma concentration [1, 7]: 1.040 µM
- Mean plasma concentration [1, 8]: 0.934 µM
- Sample 1 plasma concentration [1, 8]: 0.895 µM
- Sample 2 plasma concentration [1, 8]: 0.973 µM
- Mean plasma concentration [1, 9]: 0.826 µM
- Sample 1 plasma concentration [1, 9]: 0.836 µM
- Sample 2 plasma concentration [1, 9]: 0.815 µM
- Mean plasma concentration [1, 10]: 0.538 µM
- Sample 1 plasma concentration [1, 10]: 0.534 µM
- Sample 2 plasma concentration [1, 10]: 0.541 µM
- TI remaining ([1]; fresh rat plasma 37° C., 1 μM peptide, 240 min (4 hours)): 49.1%
- remaining at 4 h [1, 11]: 49.1%
- Mean plasma concentration [1, 12]: 0.075 µM
- Sample 1 plasma concentration [1, 12]: 0.081 µM
- Sample 2 plasma concentration [1, 12]: 0.068 µM
- TI remaining ([1]; fresh rat plasma 37° C., 1 μM peptide, 1440 min (24 hours)): 6.8%
- remaining at 24 h ([1]; fresh rat plasma 37° C., 1 μM peptide, 1440 min (24 hours), read-out: TI remaining): 6.8%
- AUC0-240 [1, 13]: 195.4 μM* min/ml
- measured half-life relative to that of THR-123 [1, 14]: about 100 times
- stability compared with THR-123 [1, 14]: dramatically more stable than THR-123
- remaining at 1 min, 1 μM [1, 15]: 97.3%
- remaining at 5 min, 1 μM [1, 16]: 101%
- remaining at 0.25 h, 1 μM [1, 17]: 97.3%
- remaining at 0.5 h, 1 μM [1, 18]: 91.5%
- remaining at 1 h, 1 μM [1, 19]: 85.3%
- remaining at 2 h, 1 μM [1, 20]: 75.4%

SMILES: CC(C)C[C@@H]1NC(=O)[C@H](C(C)C)NC(=O)[C@H](CC(N)=O)NC(=O)[C@H](CO)NC(=O)[C@H](CO)NC(=O)[C@H](CC(=O)O)NC(=O)[C@H](CC(=O)O)NC(=O)[C@H](Cc2ccccc2)NC(=O)[C@H](Cc2ccc(O)cc2)NC(=O)[C@@H](N)CSSC[C@@H](C(=O)N[C@@H](CCCCN)C(=O)N[C@@H](CCCCN)C(=O)N[C@@H](Cc2ccc(O)cc2)C(=O)N[C@@H](CCCNC(=N)N)C(=O)N[C@@H](CO)C(=O)O)NC1=O [THR-123, Cys-Tyr-Phe-Asp-Asp-Ser-Ser-Asn-Val-Leu-Cys-Lys-Lys-Tyr-Arg-Ser] (H-CYFDDSSNVLCKKYRS-OH; disulfide 1-11)
- Mean plasma concentration [1, 3]: 0.905 µM
- Sample 1 plasma concentration [1, 3]: 0.970 µM
- Sample 2 plasma concentration [1, 3]: 0.840 µM
- TI remaining [1, 3]: 100%
- Mean plasma concentration [1, 4]: 0.855 µM
- Sample 1 plasma concentration [1, 4]: 0.850 µM
- Sample 2 plasma concentration [1, 4]: 0.860 µM
- Mean plasma concentration [1, 5]: 0.295 µM
- Sample 1 plasma concentration [1, 5]: 0.300 µM
- Sample 2 plasma concentration [1, 5]: 0.290 µM
- Mean plasma concentration [1, 6]: 0.055 µM
- Sample 1 plasma concentration [1, 6]: 0.060 µM
- Sample 2 plasma concentration [1, 6]: 0.050 µM
- Mean plasma concentration [1, 7]: 0.030 µM
- Sample 1 plasma concentration [1, 7]: 0.060 µM
- Sample 2 plasma concentration [1, 7]: 0.030 µM
- Mean plasma concentration [1, 8]: 0.025 µM
- Sample 1 plasma concentration [1, 8]: 0.026 µM
- Sample 2 plasma concentration [1, 8]: 0.024 µM
- Mean plasma concentration [1, 9]: 0.018 µM
- Sample 1 plasma concentration [1, 9]: 0.015 µM
- Sample 2 plasma concentration [1, 9]: 0.020 µM
- Mean plasma concentration [1, 10]: 0.011 µM
- Sample 1 plasma concentration [1, 10]: 0.010 µM
- Sample 2 plasma concentration [1, 10]: 0.011 µM
- remaining at 4 h [1, 11]: 1.2%
- AUC0-240 [1, 13]: 15.65 μM* min/ml
- remaining at 1 min, 1 μM [1, 15]: 94.4%
- remaining at 5 min, 1 μM [1, 16]: 32.4%
- remaining at 0.25 h, 1 μM [1, 17]: 6.4%
- remaining at 0.5 h, 1 μM [1, 18]: 3.3%
- remaining at 1 h, 1 μM [1, 19]: 2.8%
- remaining at 2 h, 1 μM [1, 20]: 1.9%
- bioavailability [2]: 81%
